Measured values from paper PMC3549253, “Effect of repetitive lysine–tryptophan motifs on the bactericidal activity of antimicrobial peptides” (Amino Acids, 2012).
Converted amounts (≈) assume the structure as drawn. Where two headings read alike, the source gives them in different places.

How the values were obtained:
[1] = tested on: S. aureus CCARM 3126; experiment: microbe, parasite or virus in culture; conditions: drug-resistant strain, 2 × 10^5 CFU/ml, 24 h at 37° C, average of 3–4 independent experiments
From the text: (§1) Escherichia coli (KCTC 1682), Salmonella typhimurium (KCTC 1926), Pseudomonas aeruginosa (KCTC 1637), Staphylococcus aureus (KCTC 1621), Bacillus subtilis (KCTC 1918), and Listeria monocytogenes (KCTC 3710) were obtained from the Korean Collection for Type Cultures (KCTC). Drug-resistant E. coli strains (CCARM 1229 and CCARM 1238), S. typhimurium strains (CCARM 8007, CCARM 8009, and CCARM 8013), and S. aureus strains (CCARM 3089, CCARM 3090, CCARM 3108, CCARM 3114, and CCARM 3126) were from the Culture Collection of Antibiotic-Resistant Microbes (CCARM) at Seoul Women’s University, Korea.
(§2) The antibacterial activities of the peptides against Gram-negative, Gram-positive and antibiotic-resistant bacterial strains were evaluated using the microbroth dilution method (Park et al. [2003]). Aliquots of culture medium containing bacterial suspensions in mid-logarithmic phase at a concentration of 2 × 10^5 colony forming units (CFU)/ml were added to each well of a multiwell plate containing peptide solution serially diluted 2× in 10 mM sodium phosphate buffer (pH 7.2) or phosphate-buffered saline (PBS, 1.5 mM KH2PO4, 2.7 mM KCl, 8.1 mM Na2HPO4, 150 mM NaCl, pH 7.2). Growth inhibition was evaluated by measuring the absorbance at 620 nm using a Versa-Max microplate Elisa Reader (Molecular Devices Co., Sunnyvale, CA, USA) after 24 h of incubation at 37° C.

[2] = tested on: S. typhimurium CCARM 8013; experiment: microbe, parasite or virus in culture; assay type: cell-based, Salmonella typhimurium; conditions: drug-resistant strain, 2 × 10^5 CFU/ml, 24 h at 37° C, average of 3–4 independent experiments, read-out: MIC
From the text: as §1
as §2, with “C. […] All MIC measurements were the average of 3–4 independent experiments.” for “C.”

[3] = tested on: S. typhimurium CCARM 8007; experiment: microbe, parasite or virus in culture; assay type: cell-based, Salmonella typhimurium; conditions: drug-resistant strain, 2 × 10^5 CFU/ml, 24 h at 37° C, average of 3–4 independent experiments, read-out: MIC
From the text: as §1
as §2, with “C. […] All MIC measurements were the average of 3–4 independent experiments.” for “C.”

[4] = tested on: S. typhimurium CCARM 8009; experiment: microbe, parasite or virus in culture; assay type: cell-based, Salmonella typhimurium; conditions: drug-resistant strain, 2 × 10^5 CFU/ml, 24 h at 37° C, average of 3–4 independent experiments, read-out: MIC
From the text: as §1
as §2, with “C. […] All MIC measurements were the average of 3–4 independent experiments.” for “C.”

[5] = tested on: S. aureus CCARM 3114; experiment: microbe, parasite or virus in culture; assay type: cell-based, Staphylococcus aureus; conditions: drug-resistant strain, 2 × 10^5 CFU/ml, 24 h at 37° C, average of 3–4 independent experiments
From the text: as §1
as §2, with “C. […] All MIC measurements were the average of 3–4 independent experiments.” for “C.”

[6] = tested on: S. aureus CCARM 3090; experiment: microbe, parasite or virus in culture; assay type: cell-based, Staphylococcus aureus; conditions: drug-resistant strain, 2 × 10^5 CFU/ml, 24 h at 37° C, average of 3–4 independent experiments
From the text: as §1
as §2, with “C. […] All MIC measurements were the average of 3–4 independent experiments.” for “C.”

[7] = tested on: S. aureus CCARM 3089; experiment: microbe, parasite or virus in culture; assay type: cell-based, Staphylococcus aureus; conditions: drug-resistant strain, 2 × 10^5 CFU/ml, 24 h at 37° C, average of 3–4 independent experiments
From the text: as §1
as §2, with “C. […] All MIC measurements were the average of 3–4 independent experiments.” for “C.”

[8] = tested on: S. aureus CCARM 3108; experiment: microbe, parasite or virus in culture; assay type: cell-based, Staphylococcus aureus; conditions: drug-resistant strain, 2 × 10^5 CFU/ml, 24 h at 37° C, average of 3–4 independent experiments
From the text: as §1
as §2, with “C. […] All MIC measurements were the average of 3–4 independent experiments.” for “C.”

[9] = tested on: all 16 microbial strains; experiment: Mean MIC over all strains and therapeutic index; assay type: cell-based; conditions: MIC values in PBS from all 16 microbial strains; 400 μM used when no activity at 200 μM
Description: as §2

[10] = tested on: E. coli CCARM 1238; experiment: microbe, parasite or virus in culture; assay type: cell-based, Escherichia coli; conditions: drug-resistant strain, 2 × 10^5 CFU/ml, 24 h at 37° C, average of 3–4 independent experiments
From the text: as §1
as §2, with “C. […] All MIC measurements were the average of 3–4 independent experiments.” for “C.”

[11] = 10 mM sodium phosphate buffer, pH 7.2
[12] = PBS, pH 7.2 (number in parentheses)

CC[C@H](C)[C@H](NC(=O)CN)C(=O)NCC(=O)N[C@@H](C)C(=O)N[C@H](C(=O)N[C@@H](CC(C)C)C(=O)N[C@@H](CCCCN)C(=O)N[C@H](C(=O)N[C@@H](CC(C)C)C(=O)N[C@H](C(=O)N[C@H](C(=O)NCC(=O)N[C@@H](CC(C)C)C(=O)N1CCC[C@H]1C(=O)N[C@@H](C)C(=O)N[C@@H](CC(C)C)C(=O)N[C@H](C(=O)N[C@@H](CO)C(=O)N[C@@H](Cc1c[nH]c2ccccc12)C(=O)N[C@H](C(=O)N[C@@H](CCCCN)C(=O)N[C@@H](CCCNC(=N)N)C(=O)N[C@@H](CCCCN)C(=O)N[C@@H](CCCNC(=N)N)C(=O)N[C@@H](CCC(N)=O)C(=O)N[C@@H](CCC(N)=O)C(N)=O)[C@@H](C)CC)[C@@H](C)CC)[C@@H](C)O)[C@@H](C)O)C(C)C)C(C)C [Melittin, reference compound]
MIC [1, 11]: 1.56 (1.56) μM | MIC [1, 12]: 1.56 (1.56) μM | MIC [2, 11]: 3.12 µM (≈ 8.88 µg/mL) | MIC [2, 12]: 6.25 µM (≈ 17.8 µg/mL) | MIC [3, 11]: 6.25 µM (≈ 17.8 µg/mL) | MIC [3, 12]: 12.5 µM (≈ 35.6 µg/mL) | MIC [4, 11]: 6.25 µM (≈ 17.8 µg/mL) | MIC [4, 12]: 12.5 µM (≈ 35.6 µg/mL) | MIC [5, 11]: 3.12 (3.12) μM | MIC [5, 12]: 3.12 (3.12) μM | MIC [6, 11]: 3.12 (3.12) μM | MIC [6, 12]: 3.12 (3.12) μM | MIC [7, 11]: 1.56 (1.56) μM | MIC [7, 12]: 1.56 (1.56) μM | MIC [8, 11]: 1.56 (1.56) μM | MIC [8, 12]: 1.56 (1.56) μM | GM (geometric mean of MIC values) [9]: 3.6 µM | MIC [10, 11]: 1.56 (1.56) μM | MIC [10, 12]: 1.56 (1.56) μM
